Measurements from US20240262842A1, “SMALL MOLECULE INHIBITORS OF KRAS G12C MUTANT” (Merck Sharp & Dohme LLC, priority 2021, published 2024).
pIC50: −log10 of the molar value. Where two headings read alike, the source gives them in different places.

Columns and labels:
[1] = target: T1, interaction between GMPPNP-bound recombinant K-Ras4B G12C mutant protein and cRAF RAS-binding domain (cRAF-RBD) (Homo sapiens, UniProt P01116, G12C); assay: Inhibitory activity on interaction between KRAS G12C and cRAF (Alpha technology); conditions: Table 2-1
T1 construct: His-tag (N)
Method in brief: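 His-tagged K-Ras4B G12C (aa 1-169), GMPPNP-loaded, preincubated with compound 1 h at 25° C in pH 7.5 Tris buffer with MgCl2, TCEP, Tween 20. cRAF-RBD (aa 50-132) and Alpha reagents then added for 1.5 h; Alpha signal normalised to DMSO (0%) and GDP-bound KRAS (100%); IC50 from dose titration.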

MIA PaCa-2 cells = assay: Growth inhibition activity on KRAS-G12C mutant cell line (CellTiter-Glo 3D); assay type: cell-based, human; conditions: Homo sapiens, MIA PaCa-2, 72 h, MIA PaCa-2, 3-day culture with compound; Table 3-1
Method in brief: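 MIA PaCa-2 cells in RPMI1640 with 10% FBS, U-bottom wells, cultured 1 day before compound (0.2% DMSO final), then 3 days at 37 °C, 5% CO2. Viability by CellTiter-Glo 3D luminescence; growth inhibition versus untreated wells gives IC50 (nM).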

[2] = GMPPNP-bound KRAS G12C incubated with compound 25° C. 1 hour, read-out: IC50
[3] = IC50, GMPPNP-bound KRAS G12C incubated with compound 25° C. 1 hour

T1 sequence (P01116 with tags, fused parts or gaps isoform P01116-2 G12C): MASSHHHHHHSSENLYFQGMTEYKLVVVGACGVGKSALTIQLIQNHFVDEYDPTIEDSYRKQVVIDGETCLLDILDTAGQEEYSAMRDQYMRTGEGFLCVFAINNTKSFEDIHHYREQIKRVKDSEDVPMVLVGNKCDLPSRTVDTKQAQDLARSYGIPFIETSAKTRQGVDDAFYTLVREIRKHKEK

Compound	pIC50 [1, 2]	pIC50 (MIA PaCa-2 cells)	pIC50 [1, 3]
Cn1cnc2c3c(c(C(F)(F)F)cc21)-c1cccn2c(C(=O)c4cc(F)c(NC(=O)/C=C/CNC5(C)COC5)c(F)c4)cc(c12)CCO3 (single isomer, unassigned) [Example 75, (E)-N-(2,6-difluoro-4-(9-methyl-7-(trifluoro-methyl)-13,14-dihydro-9H-imidazo[4″,5″:5′,6′]-benzo[1′,2′:2,3]oxocino-[4,5,6-hi]indolizine-2-carbonyl)phenyl)-4-((3-methyloxetan-3-yl)-amino)but-2-enamide]	7.80	8.02	
CN1CCc2cc(C(=O)c3cc(F)c(NC(=O)/C=C/CNC4(C)COC4)c(F)c3)n3cccc(c23)-c2c(C(F)(F)F)cc3c(ncn3C)c21 (single isomer, unassigned) [Example 83]	7.47	7.81	
Cc1nc2c3c(c(C(F)(F)F)cc2n1C)-c1cccc2c(C(=O)c4cc(F)c(NC(=O)/C=C/CN[C@H]5CCOC5)c(F)c4)cn(c12)CCN3C (single isomer, unassigned) [Example 87]		8.49	7.74
CN1CCc2cc(C(=O)c3cc(F)c(NC(=O)/C=C/CN[C@@H]4CCOC4)c(F)c3)n3cccc(c23)-c2c(C(F)(F)F)cc3c(ncn3C)c21 (single isomer, unassigned) [Example 89]	7.80	8.36	
Cc1cc2c(nc(C)n2C)c2c1-c1cccc3c(C(=O)c4cc(F)c(NC(=O)/C=C/CN[C@H]5CCOC5)c(F)c4)cn(c13)CCN2C (single isomer, unassigned) [Example 90]		7.67	7.76
COCc1nc2c3c(c(C(F)(F)F)cc2n1C)-c1cccn2c(C(=O)c4cc(F)c(NC(=O)/C=C/CNC5(C)COC5)c(F)c4)cc(c12)CCN3C (single isomer, unassigned) [Example 92, (E)-N-(2,6-difluoro-4-(10-(methoxymethyl)-9,12-dimethyl-7-(trifluoromethyl)-9,12,13,14-tetrahydroimidazo[4″,5″:5′,6′]benzo[1′,2′:2,3]azocino[4,5,6-hi]indolizine-2-carbonyl)phenyl)-4-((3-methyloxetan-3-yl)amino)but-2-enamide]	7.70	7.92	
Cc1nc2c3c(c(C(F)(F)F)cc2n1C)-c1cccc2c(C(=O)c4cc(F)c(NC(=O)/C=C/CN[C@@H]5CCOC5)c(F)c4)cn(c12)CCN3C (single isomer, unassigned) [Example 95]		7.94	7.51
COCc1nc2c3c(c(C(F)(F)F)cc2n1C)-c1cccc2c(C(=O)c4cc(F)c(NC(=O)/C=C/CNC5(C)COC5)c(F)c4)cn(c12)CCN3C (single isomer, unassigned) [Example 97, (E)-N-(2,6-difluoro-4-(9-(methoxymethyl)-8,11-dimethyl-6-(trifluorometh-yl)-8,11,12,13-tetrahydro-imidazo[4″,5″:5′,6′]benzo-[1′,2′:5,6][1,4]diazocino-[7,8,1-hi]indole-2-carbon-yl)phenyl)-4-((3-methyl-oxetan-3-yl)amino)but-2-enamide]		8.10	7.52
COCc1nc2c3c(c(C(F)(F)F)cc2n1C)-c1cccn2c(C(=O)c4cc(F)c(NC(=O)/C=C/CN[C@H]5CCOC5)c(F)c4)cc(c12)CCN3C (single isomer, unassigned) [Example 98]	7.95	8.40	
COCc1nc2c3c(c(C(F)(F)F)cc2n1C)-c1cccn2c(C(=O)c4cc(F)c(NC(=O)/C=C/CNC5(C)COC5)c(F)c4)cc(c12)CCO3 (single isomer, unassigned) [Example 99, (E)-N-(2,6-difluoro-4-(10-(methoxymethyl)-9-meth-yl-7-(trifluoromethyl)-13,14-dihydro-9H-imidazo[4″,5″:5′,6′]benzo-[1′,2′:2,3]oxocino[4,5,6-hi]indolizine-2-carbonyl)-phenyl)-4-((3-methyl-oxetan-3-yl)amino)-but-2-enamide]	7.91	8.01	
